Experimental data as given in patent US20240317780A1, “RADIOPHARMACEUTICAL SOMATOSTATIN RECEPTOR LIGANDS AND PRECURSORS THEREOF” (Technische Universität München, priority 2021, published 2024).
Where a SMILES comes first, the peptide text is derived from it. Bridges are numbered along the chain shown (N, C = ends). [ ]: non-standard residue; d: D form. The star is where a group is joined. ξ: configuration not given here. X1 = CC(C)(C)[Si](F)(c1ccc(C[N+](C)(C)CC(=O)*)cc1)C(C)(C)C; DO3AM = NC(=O)CN1CCN(CC(N)=O)CCN(CC(=O)*)CCN(CC(N)=O)CC1; ξW = NC(Cc1c[nH]c2ccccc12)C(=O)O; dDap = NC[C@@H](N)C(=O)O; ξF = NC(Cc1ccccc1)C(=O)O; ξD = NC(CC(=O)O)C(=O)O; ξC = NC(CS)C(=O)O

What was measured:
[1] = Octanol-water distribution coefficient (logD pH 7.4) of the labeled tracer; format: physicochemical; details: n-octanol/PBS pH 7.4, room temperature
Method in brief: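 About 1 MBq tracer partitioned in 1:1 PBS pH 7.4/n-octanol, mixed 3 min at room temperature, centrifuged 15000 g for 5 min. Both layers counted by gamma counter; at least six repeats.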

HSA = HSA (Homo sapiens, UniProt P02768); assay: HSA binding by RIAC method (gel filtration, apparent molecular weight); format: in vitro ADME; details: HSA binding as apparent molecular weight, 700 μM HSA in PBS mobile phase
HSA, sequence (P02768 25-609): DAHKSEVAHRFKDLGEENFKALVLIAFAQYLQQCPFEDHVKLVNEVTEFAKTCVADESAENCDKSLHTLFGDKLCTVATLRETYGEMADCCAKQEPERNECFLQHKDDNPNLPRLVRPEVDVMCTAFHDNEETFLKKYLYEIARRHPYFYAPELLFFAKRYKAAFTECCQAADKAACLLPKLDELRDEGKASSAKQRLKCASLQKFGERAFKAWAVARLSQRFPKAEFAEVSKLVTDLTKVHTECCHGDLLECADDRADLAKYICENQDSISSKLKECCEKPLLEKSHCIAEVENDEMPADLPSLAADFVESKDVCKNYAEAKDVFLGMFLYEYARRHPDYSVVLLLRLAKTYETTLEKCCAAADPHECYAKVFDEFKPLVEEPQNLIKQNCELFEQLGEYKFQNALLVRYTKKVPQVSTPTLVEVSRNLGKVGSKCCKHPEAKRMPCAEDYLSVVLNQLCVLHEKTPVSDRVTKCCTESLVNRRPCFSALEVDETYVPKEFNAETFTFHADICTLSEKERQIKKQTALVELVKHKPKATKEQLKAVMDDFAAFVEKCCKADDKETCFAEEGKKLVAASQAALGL
Protocol: A gel filtration column Superdex 75 Increase 10/300 GL (GE Healthcare, Uppsala, Sweden) was beforehand calibrated following the producer's recommendations with a commercially available gel filtration calibration kit (GE Healthcare, Buckinghamshire, UK) comprising conalbumin (MW: 75 kDa), ovalbumin (44 kDa), carbonic anhydrase (29 kDa), ribonuclease A (13.7 kDa) and aprotinin (6.5 kDa) as reference proteins of known molecular weight. AMSEC experiments were conducted using a constant flow rate of 0.8 mL/min at rt. A solution of HSA in PBS at physiological concentration (700 μM) was used as the mobile phase. SST2 ligands were labelled as described with molar activities of 10-20 GBq/μmol. Probes of 1.0 MBq of the radioligand were injected directly from the labelling solution. HSA binding was expressed as an apparent molecular weight MW calculated from the retention time of the radioligand using the determined calibration curve.
For evaluation, experimentally determined retention times tR are first converted into elution volumes Ve by multiplying with the flow rate and thereafter converted into partition coefficients Kav following the equation
where V0 is the column void volume (8.027 mL) and Vc is the geometric column volume (24 mL). Using the equation given by the trend line plot of the column calibration
the apparent molecular weight MW is calculated as […]

SST2 = molecular target: T1, SST2 (Homo sapiens, UniProt P30874); assay: Determination of IC50: competitive binding against [125I]TOC on SST2-transfected CHO cells; details: [125I]TOC reference radioligand, 60 min room temperature
T1 construct: expressed in transfected cells; host or cells: CHO (Chinese hamster ovary) cells
T1 sequence (P30874 whole entry, species assumed): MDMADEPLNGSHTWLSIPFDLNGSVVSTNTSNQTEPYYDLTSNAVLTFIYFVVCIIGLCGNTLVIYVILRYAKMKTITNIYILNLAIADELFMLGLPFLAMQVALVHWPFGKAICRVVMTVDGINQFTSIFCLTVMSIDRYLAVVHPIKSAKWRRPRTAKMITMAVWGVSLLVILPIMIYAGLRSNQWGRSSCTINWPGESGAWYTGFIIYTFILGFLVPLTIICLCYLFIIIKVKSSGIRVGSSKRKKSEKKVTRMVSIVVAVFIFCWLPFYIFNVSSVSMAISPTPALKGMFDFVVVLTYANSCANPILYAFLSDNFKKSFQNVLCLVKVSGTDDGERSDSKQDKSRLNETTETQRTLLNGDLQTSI

## C[C@@H](O)[C@H](NC(=O)C1CSSCC(NC(=O)C(Cc2ccccc2)NC(=O)CNC(=O)CNC(=O)[C@@H](CC(=O)O)NC(=O)C(CC(=O)O)NC(=O)[C@@H](CNC(=O)CN2CCN(CC(N)=O)CCN(CC(N)=O)CCN(CC(N)=O)CC2)NC(=O)C[N+](C)(C)Cc2ccc([Si](F)(C(C)(C)C)C(C)(C)C)cc2)C(=O)N[C@@H](Cc2ccc(O)cc2)C(=O)NC(Cc2c[nH]c3ccccc23)C(=O)N[C@@H](CCCCN)C(=O)N[C@@H]([C@@H](C)O)C(=O)N1)C(=O)O (some centres unmarked) [[Pb]38] (X1-[dDap](DO3AM)[ξD][dD]GG[ξF][ξC]Y[ξW]KT[ξC]T-OH; disulfide 7-12)
[1]
  LogDpH=7.4: −1.95 ± 0.03
HSA
  HSA: 9.20 kDa
SST2
  IC50: 4.67 ± 0.73 nM

## C[C@@H](O)[C@H](NC(=O)C1CSSCC(NC(=O)C(Cc2ccccc2)NC(=O)CNC(=O)CNC(=O)[C@@H](CC(N)=O)NC(=O)C(CC(N)=O)NC(=O)[C@@H](CNC(=O)CC[C@H](C(=O)O)N2CCN(CC(=O)O)CCN(CC(=O)O)CCN(CC(=O)O)CC2)NC(=O)C(CN)NC(=O)c2ccc([Si](F)(C(C)(C)C)C(C)(C)C)cc2)C(=O)N[C@@H](Cc2ccc(O)cc2)C(=O)NC(Cc2c[nH]c3ccccc23)C(=O)N[C@@H](CCCCN)C(=O)N[C@@H]([C@@H](C)O)C(=O)N1)C(=O)O (some centres unmarked) (natGa complex, metal not drawn) [[Ga]41]
[1]
  LogDpH=7.4: −1.58 ± 0.05
HSA
  HSA: 15.48 kDa
SST2
  IC50: 3.64 ± 0.64 nM

## C[C@@H](O)[C@H](NC(=O)C1CSSCC(NC(=O)C(Cc2ccccc2)NC(=O)CNC(=O)CNC(=O)[C@@H](CC(=O)O)NC(=O)C(CC(=O)O)NC(=O)[C@@H](CNC(=O)CC[C@H](C(=O)O)N2CCN(CC(=O)O)CCN(CC(=O)O)CCN(CC(=O)O)CC2)NC(=O)C(CN)NC(=O)c2ccc([Si](F)(C(C)(C)C)C(C)(C)C)cc2)C(=O)N[C@@H](Cc2ccc(O)cc2)C(=O)NC(Cc2c[nH]c3ccccc23)C(=O)N[C@@H](CCCCN)C(=O)N[C@@H]([C@@H](C)O)C(=O)N1)C(=O)O (some centres unmarked) [[Ga]20]
[1]
  LogDpH=7.4: −2.16 ± 0.04
HSA
  HSA: 21.49 kDa

## C[C@@H](O)[C@H](NC(=O)C1CSSCC(NC(=O)C(Cc2ccccc2)NC(=O)CNC(=O)CNC(=O)[C@@H](CC(=O)O)NC(=O)C(CC(=O)O)NC(=O)[C@@H](CNC(=O)CN2CCN(CC(=O)O)CCN(CC(=O)O)CCN(CC(=O)O)CC2)NC(=O)C(CN)NC(=O)c2ccc([Si](F)(C(C)(C)C)C(C)(C)C)cc2)C(=O)N[C@@H](Cc2ccc(O)cc2)C(=O)NC(Cc2c[nH]c3ccccc23)C(=O)N[C@@H](CCCCN)C(=O)N[C@@H]([C@@H](C)O)C(=O)N1)C(=O)O (some centres unmarked) [[Ga]19]
[1]
  LogDpH=7.4: −2.11 ± 0.04
HSA
  HSA: 21.17 kDa

## C[C@@H](O)[C@H](NC(=O)C1CSSCC(NC(=O)C(Cc2ccccc2)NC(=O)[C@@H](CC(N)=O)NC(=O)C(CC(N)=O)NC(=O)[C@@H](CC(=O)O)NC(=O)C(CC(=O)O)NC(=O)[C@@H](CNC(=O)CN2CCN(CC(=O)O)CCN(CC(=O)O)CCN(CC(=O)O)CC2)NC(=O)C[N+](C)(C)Cc2ccc([Si](F)(C(C)(C)C)C(C)(C)C)cc2)C(=O)N[C@@H](Cc2ccc(O)cc2)C(=O)NC(Cc2c[nH]c3ccccc23)C(=O)N[C@@H](CCCCN)C(=O)N[C@@H]([C@@H](C)O)C(=O)N1)C(=O)O (some centres unmarked) [[Ga]48]
[1]
  LogDpH=7.4: −2.10 ± 0.05
HSA
  HSA: 8.11 kDa

## C[C@@H](O)[C@H](NC(=O)C1CSSCC(NC(=O)C(Cc2ccccc2)NC(=O)CNC(=O)CNC(=O)CNC(=O)C(CC(=O)O)NC(=O)[C@@H](CC(=O)O)NC(=O)C(CNC(=O)CN2CCN(CC(=O)O)CCN(CC(=O)O)CCN(CC(=O)O)CC2)NC(=O)C[N+](C)(C)Cc2ccc([Si](F)(C(C)(C)C)C(C)(C)C)cc2)C(=O)N[C@@H](Cc2ccc(O)cc2)C(=O)NC(Cc2c[nH]c3ccccc23)C(=O)N[C@@H](CCCCN)C(=O)N[C@@H]([C@@H](C)O)C(=O)N1)C(=O)O (some centres unmarked) [[Lu]50]
[1]
  LogDpH=7.4: −1.79 ± 0.02
HSA
  HSA: 8.17 kDa

## C[C@@H](O)[C@H](NC(=O)C1CSSCC(NC(=O)C(Cc2ccccc2)NC(=O)CNC(=O)CNC(=O)[C@@H](CC(=O)O)NC(=O)C(CC(=O)O)NC(=O)[C@@H](CNC(=O)CN2CCN(CC(=O)O)CCN(CC(=O)O)CCN(CC(=O)O)CC2)NC(=O)C[N+](C)(C)Cc2ccc([Si](F)(C(C)(C)C)C(C)(C)C)cc2)C(=O)N[C@@H](Cc2ccc(O)cc2)C(=O)NC(Cc2c[nH]c3ccccc23)C(=O)N[C@@H](CCCCN)C(=O)N[C@@H]([C@@H](C)O)C(=O)N1)C(=O)O (some centres unmarked) [[Ga]24]
[1]
  LogDpH=7.4: −1.92 ± 0.03
HSA
  HSA: 8.77 kDa

## C[C@@H](O)[C@H](NC(=O)C1CSSCC(NC(=O)C(Cc2ccccc2)NC(=O)CNC(=O)CNC(=O)CNC(=O)C(CC(=O)O)NC(=O)[C@@H](CC(=O)O)NC(=O)C(CNC(=O)CN2CCN(CC(=O)O)CCN(CC(=O)O)CCN(CC(=O)O)CC2)NC(=O)[C@@H](CN)NC(=O)CNC(=O)CNC(=O)C[N+](C)(C)Cc2ccc([Si](F)(C(C)(C)C)C(C)(C)C)cc2)C(=O)N[C@@H](Cc2ccc(O)cc2)C(=O)NC(Cc2c[nH]c3ccccc23)C(=O)N[C@@H](CCCCN)C(=O)N[C@@H]([C@@H](C)O)C(=O)N1)C(=O)O (some centres unmarked) [[Ga]53]
[1]
  LogDpH=7.4: −1.96 ± 0.01
HSA
  HSA: 8.48 kDa

## C[C@@H](O)[C@H](NC(=O)C1CSSCC(NC(=O)C(Cc2ccccc2)NC(=O)CNC(=O)CNC(=O)[C@@H](CC(=O)O)NC(=O)C(CC(=O)O)NC(=O)[C@@H](CNC(=O)CC[C@H](C(=O)O)N2CCN(CC(=O)O)CCN(CC(=O)O)CCN(CC(=O)O)CC2)NC(=O)C(CN)NC(=O)c2ccc([Si](F)(C(C)(C)C)C(C)(C)C)cc2)C(=O)N[C@@H](Cc2ccc(O)cc2)C(=O)NC(Cc2c[nH]c3ccccc23)C(=O)N[C@@H](CCCCN)C(=O)N[C@@H]([C@@H](C)O)C(=O)N1)C(=O)O (some centres unmarked) [[Lu]20]
[1]
  LogDpH=7.4: −2.35 ± 0.04
HSA
  HSA: 18.76 kDa

## C[C@@H](O)[C@H](NC(=O)C1CSSCC(NC(=O)C(Cc2ccccc2)NC(=O)CNC(=O)CNC(=O)CNC(=O)C(CC(=O)O)NC(=O)[C@@H](CC(=O)O)NC(=O)C(CCCCN)NC(=O)[C@@H](CNC(=O)C[N+](C)(C)Cc2ccc([Si](F)(C(C)(C)C)C(C)(C)C)cc2)NC(=O)CN2CCN(CC(=O)O)CCN(CC(=O)O)CCN(CC(=O)O)CC2)C(=O)N[C@@H](Cc2ccc(O)cc2)C(=O)NC(Cc2c[nH]c3ccccc23)C(=O)N[C@@H](CCCCN)C(=O)N[C@@H]([C@@H](C)O)C(=O)N1)C(=O)O (some centres unmarked) [[Ga]45]
[1]
  LogDpH=7.4: −2.10 ± 0.04
HSA
  HSA: 7.76 kDa

## C[C@@H](O)[C@H](NC(=O)C1CSSCC(NC(=O)C(Cc2ccccc2)NC(=O)CNC(=O)CNC(=O)CNC(=O)C(CC(=O)O)NC(=O)[C@@H](CC(=O)O)NC(=O)C(CCC(=O)O)NC(=O)[C@@H](CNC(=O)C[N+](C)(C)Cc2ccc([Si](F)(C(C)(C)C)C(C)(C)C)cc2)NC(=O)CN2CCN(CC(=O)O)CCN(CC(=O)O)CCN(CC(=O)O)CC2)C(=O)N[C@@H](Cc2ccc(O)cc2)C(=O)NC(Cc2c[nH]c3ccccc23)C(=O)N[C@@H](CCCCN)C(=O)N[C@@H]([C@@H](C)O)C(=O)N1)C(=O)O (some centres unmarked) [[Ga]47]
[1]
  LogDpH=7.4: −2.30 ± 0.02
HSA
  HSA: 7.66 kDa

## C[C@@H](O)[C@H](NC(=O)C1CSSCC(NC(=O)C(Cc2ccccc2)NC(=O)CNC(=O)CNC(=O)CNC(=O)C(CC(=O)O)NC(=O)[C@@H](CC(=O)O)NC(=O)C(CNC(=O)CN2CCN(CC(=O)O)CCN(CC(=O)O)CCN(CC(=O)O)CC2)NC(=O)[C@@H](CN)NC(=O)C[N+](C)(C)Cc2ccc([Si](F)(C(C)(C)C)C(C)(C)C)cc2)C(=O)N[C@@H](Cc2ccc(O)cc2)C(=O)NC(Cc2c[nH]c3ccccc23)C(=O)N[C@@H](CCCCN)C(=O)N[C@@H]([C@@H](C)O)C(=O)N1)C(=O)O (some centres unmarked) [[Lu]51]
[1]
  LogDpH=7.4: −1.71 ± 0.05
HSA
  HSA: 8.84 kDa
